Experiments:
Format in all cases: in vivo
Indian mallow [1] = test: Test Example 3: weedkilling efficacy through soil treatment; K: Indian mallow; conditions: treatment dosage 315 g/ha
Summary of the method: (§1)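 Crop and weed responses were judged three weeks after a uniform surface spray of the water-diluted emulsion at the given g/ha rate. Seeds sat beneath about 1.5 cm of sterilized diluvial soil, and boxes stood in a greenhouse at 25 to 30° C.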

crabgrass [2] = test: Test Example 4: weedkilling efficacy by foliar treatment; D: crabgrass; conditions: treatment dosage 315 g/ha
Summary of the method: (§2)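 Seeds are spot-sown into sterilized diluvial soil and covered with about 1.5 cm of soil. After 14 days' greenhouse growth at 25 to 30° C, plants are sprayed on stems and leaves with diluted emulsion at the stated g/ha rate, then scored at 3 weeks.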

directly sown rice [3] = test: Test Example 3: soil treatment, effect on crop; b: directly sown rice; conditions: treatment dosage 315 g/ha
Summary of the method: as §1

green foxtail [4] = test: Test Example 4: weedkilling efficacy by foliar treatment; E: green foxtail; conditions: treatment dosage 315 g/ha
Summary of the method: as §2

redroot pigweed [5] = test: Test Example 3: weedkilling efficacy through soil treatment; L: redroot pigweed; conditions: treatment dosage 315 g/ha
Summary of the method: as §1

transplanted rice = test: Test Example 1: preemergent weed treatment in the submerged state, effect on crop; a: transplanted rice; conditions: treatment dosage 252 g/ha
Summary of the method: (§3)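 Pots of alluvial soil were flooded to a 4 cm depth. Mixed weed seeds were sown and 2.5 leaf-stage rice seedlings transplanted. On sowing day, water-diluted emulsion was applied to the water surface (dose in g/ha). After 3 weeks at 25–30 °C, effects were rated.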

wild oat [6] = test: Test Example 3: weedkilling efficacy through soil treatment; G: wild oat; conditions: treatment dosage 315 g/ha
Summary of the method: as §1

wild oat [7] = test: Test Example 4: weedkilling efficacy by foliar treatment; G: wild oat; conditions: treatment dosage 315 g/ha
Method: Testing of Weedkilling Efficacy by Foliar Treatment
Sterilized diluvial soil was introduced into 21 cm long, 13 cm wide, 7 cm deep plastic boxes, and seeds of crabgrass, green foxtail, barnyard grass, wild oat, black-grass, Italian ryegrass, common wind-grass, Indian mallow, redroot pigweed, fig-leafed goosefoot, chickweed, catchweed, birds-eye speedwell, corn, soybean, rice, wheat, beet and rapeseed were each spot-sown, and covered with about 1.5 cm of soil, then the plants were grown in a greenhouse at 25 to 30° C.
After they had grown for 14 days, emulsions of compounds of the present invention prepared according to compounding example 2 were diluted with water to give the specified dosages, and applied uniformly onto the stem and leaf parts with a small sprayer. 3 weeks after the pesticide treatment the effect on each type of plant was investigated on the basis of the assessment criteria of test example 1.
A: barnyard grass, B: bulrush, C: oval-leafed pondweed, D: crabgrass, E: green foxtail, F: barnyard grass, G: wild oat, H: black-grass, I: Italian ryegrass, J: common wind-grass, K: Indian mallow, L: redroot pigweed, M: fig-leafed goosefoot, N: chickweed, O: catchweed, p: birds-eye speedwell, a: transplanted rice, b: directly sown rice, c: corn, d: soybean, e: wheat, f: beet, g: rapeseed
Further, pesticide dosage (g/ha) indicates the concentration regulated such that treatment was with only the stated number of grams (g), when calculated per hectare (ha).

beet [8] = test: Test Example 3: soil treatment, effect on crop; f: beet; conditions: treatment dosage 315 g/ha
Summary of the method: as §1

bulrush [9] = test: Test Example 2: weedkilling efficacy, growth period weed treatment in the submerged state; B: bulrush; conditions: treatment dosage 252 g/ha
Summary of the method: (§4)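 Weeds treated at the 1-2 leaf stage by application of diluted emulsion onto floodwater (4 cm depth, alluvial soil) at specified g/ha. Grown in greenhouse at 25 to 30° C; herbicidal effect rated three weeks after treatment.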

fig-leafed goosefoot [10] = test: Test Example 4: weedkilling efficacy by foliar treatment; M: fig-leafed goosefoot; conditions: treatment dosage 315 g/ha
Summary of the method: as §2

corn [11] = test: Test Example 3: soil treatment, effect on crop; c: corn; conditions: treatment dosage 315 g/ha
Summary of the method: as §1

black-grass [12] = test: Test Example 4: weedkilling efficacy by foliar treatment; H: black-grass; conditions: treatment dosage 315 g/ha
Summary of the method: as §2

Indian mallow [13] = test: Test Example 4: weedkilling efficacy by foliar treatment; K: Indian mallow; conditions: treatment dosage 315 g/ha
Summary of the method: as §2

soybean [14] = test: Test Example 4: foliar treatment, effect on crop; d: soybean; conditions: treatment dosage 315 g/ha
Summary of the method: as §2

fig-leafed goosefoot [15] = test: Test Example 3: weedkilling efficacy through soil treatment; M: fig-leafed goosefoot; conditions: treatment dosage 315 g/ha
Summary of the method: as §1

oval-leafed pondweed [16] = test: Test Example 2: weedkilling efficacy, growth period weed treatment in the submerged state; C: oval-leafed pondweed; conditions: treatment dosage 252 g/ha
Summary of the method: as §4

birds-eye speedwell = test: Test Example 3: weedkilling efficacy through soil treatment; p: birds-eye speedwell; conditions: treatment dosage 315 g/ha
Summary of the method: as §1

barnyard grass [17] = test: Test Example 2: weedkilling efficacy, growth period weed treatment in the submerged state; A: barnyard grass; conditions: treatment dosage 252 g/ha
Summary of the method: as §4

beet [18] = test: Test Example 4: foliar treatment, effect on crop; f: beet; conditions: treatment dosage 315 g/ha
Summary of the method: as §2

Italian ryegrass [19] = test: Test Example 4: weedkilling efficacy by foliar treatment; I: Italian ryegrass; conditions: treatment dosage 315 g/ha
Summary of the method: as §2

catchweed = test: Test Example 4: weedkilling efficacy by foliar treatment; O: catchweed; conditions: treatment dosage 315 g/ha
Summary of the method: as §2

soybean [20] = test: Test Example 3: soil treatment, effect on crop; d: soybean; conditions: treatment dosage 315 g/ha
Summary of the method: as §1

corn [21] = test: Test Example 4: foliar treatment, effect on crop; c: corn; conditions: treatment dosage 315 g/ha
Summary of the method: as §2

barnyard grass [22] = test: Test Example 1: weedkilling efficacy, preemergent weed treatment in the submerged state; A: barnyard grass; conditions: treatment dosage 252 g/ha
Summary of the method: as §3

oval-leafed pondweed [23] = test: Test Example 1: weedkilling efficacy, preemergent weed treatment in the submerged state; C: oval-leafed pondweed; conditions: treatment dosage 252 g/ha
Summary of the method: as §3

bulrush [24] = test: Test Example 1: weedkilling efficacy, preemergent weed treatment in the submerged state; B: bulrush; conditions: treatment dosage 252 g/ha
Summary of the method: as §3

black-grass [25] = test: Test Example 3: weedkilling efficacy through soil treatment; H: black-grass; conditions: treatment dosage 315 g/ha
Summary of the method: as §1

wheat [26] = test: Test Example 3: soil treatment, effect on crop; e: wheat; conditions: treatment dosage 315 g/ha
Summary of the method: as §1

chickweed [27] = test: Test Example 4: weedkilling efficacy by foliar treatment; N: chickweed; conditions: treatment dosage 315 g/ha
Summary of the method: as §2

crabgrass [28] = test: Test Example 3: weedkilling efficacy through soil treatment; D: crabgrass; conditions: treatment dosage 315 g/ha
Summary of the method: as §1

wheat [29] = test: Test Example 4: foliar treatment, effect on crop; e: wheat; conditions: treatment dosage 315 g/ha
Summary of the method: as §2

Italian ryegrass [30] = test: Test Example 3: weedkilling efficacy through soil treatment; I: Italian ryegrass; conditions: treatment dosage 315 g/ha
Summary of the method: as §1

redroot pigweed [31] = test: Test Example 4: weedkilling efficacy by foliar treatment; L: redroot pigweed; conditions: treatment dosage 315 g/ha
Summary of the method: as §2

directly sown rice [32] = test: Test Example 4: foliar treatment, effect on crop; b: directly sown rice; conditions: treatment dosage 315 g/ha
Summary of the method: as §2

green foxtail [33] = test: Test Example 3: weedkilling efficacy through soil treatment; E: green foxtail; conditions: treatment dosage 315 g/ha
Summary of the method: as §1

chickweed [34] = test: Test Example 3: weedkilling efficacy through soil treatment; N: chickweed; conditions: treatment dosage 315 g/ha
Summary of the method: as §1

## CC1=C(c2ccccc2)C(=O)N(C(C)(C)C(=O)Nc2cccc(F)n2)CO1 [B-2-27]
Indian mallow [1]
  K (Indian mallow) weedkilling efficacy grade: 5 (weed kill ratio 90% or more, (practically complete withering))
Crabgrass [2]
  D (crabgrass) weedkilling efficacy grade: 5 (weed kill ratio 90% or more, (practically complete withering))
Directly sown rice [3]
  b (directly sown rice) effect on crop grade: 5 (weed kill ratio 90% or more, (practically complete withering))
Green foxtail [4]
  E (green foxtail) weedkilling efficacy grade: 5 (weed kill ratio 90% or more, (practically complete withering))
Redroot pigweed [5]
  L (redroot pigweed) weedkilling efficacy grade: 5 (weed kill ratio 90% or more, (practically complete withering))
Transplanted rice
  a (transplanted rice) effect on crop grade: 0 (weed kill ratio 5% or less (practically no effect))
Wild oat [6]
  G (wild oat) weedkilling efficacy grade: 5 (weed kill ratio 90% or more, (practically complete withering))
Wild oat [7]
  G (wild oat) weedkilling efficacy grade: 5 (weed kill ratio 90% or more, (practically complete withering))
Beet [8]
  f (beet) effect on crop grade: 4 (weed kill ratio 70% or more, less than 90%)
Bulrush [9]
  B (bulrush) weedkilling efficacy grade: 5 (weed kill ratio 90% or more, (practically complete withering))
fig-leafed goosefoot [10]
  M (fig-leafed goosefoot) weedkilling efficacy grade: 3 (weed kill ratio 40% or more, less than 70%)
Corn [11]
  c (corn) effect on crop grade: 4 (weed kill ratio 70% or more, less than 90%)
black-grass [12]
  H (black-grass) weedkilling efficacy grade: 5 (weed kill ratio 90% or more, (practically complete withering))
Indian mallow [13]
  K (Indian mallow) weedkilling efficacy grade: 4 (weed kill ratio 70% or more, less than 90%)
Soybean [14]
  d (soybean) effect on crop grade: 4 (weed kill ratio 70% or more, less than 90%)
fig-leafed goosefoot [15]
  M (fig-leafed goosefoot) weedkilling efficacy grade: 5 (weed kill ratio 90% or more, (practically complete withering))
oval-leafed pondweed [16]
  C (oval-leafed pondweed) weedkilling efficacy grade: 5 (weed kill ratio 90% or more, (practically complete withering))
birds-eye speedwell
  P (birds-eye speedwell) weedkilling efficacy grade: 5 (weed kill ratio 90% or more, (practically complete withering))
Barnyard grass [17]
  A (barnyard grass) weedkilling efficacy grade: 4 (weed kill ratio 70% or more, less than 90%)
Beet [18]
  f (beet) effect on crop grade: 4 (weed kill ratio 70% or more, less than 90%)
Italian ryegrass [19]
  I (Italian ryegrass) weedkilling efficacy grade: 5 (weed kill ratio 90% or more, (practically complete withering))
catchweed
  O (catchweed) weedkilling efficacy grade: 4 (weed kill ratio 70% or more, less than 90%)
Soybean [20]
  d (soybean) effect on crop grade: 5 (weed kill ratio 90% or more, (practically complete withering))
Corn [21]
  c (corn) effect on crop grade: 4 (weed kill ratio 70% or more, less than 90%)
Barnyard grass [22]
  A (barnyard grass) weedkilling efficacy grade: 5 (weed kill ratio 90% or more, (practically complete withering))
oval-leafed pondweed [23]
  C (oval-leafed pondweed) weedkilling efficacy grade: 5 (weed kill ratio 90% or more, (practically complete withering))
Bulrush [24]
  B (bulrush) weedkilling efficacy grade: 5 (weed kill ratio 90% or more, (practically complete withering))
black-grass [25]
  H (black-grass) weedkilling efficacy grade: 5 (weed kill ratio 90% or more, (practically complete withering))
Wheat [26]
  e (wheat) effect on crop grade: 5 (weed kill ratio 90% or more, (practically complete withering))
Chickweed [27]
  N (chickweed) weedkilling efficacy grade: 4 (weed kill ratio 70% or more, less than 90%)
Crabgrass [28]
  D (crabgrass) weedkilling efficacy grade: 5 (weed kill ratio 90% or more, (practically complete withering))
Wheat [29]
  e (wheat) effect on crop grade: 4 (weed kill ratio 70% or more, less than 90%)
Italian ryegrass [30]
  I (Italian ryegrass) weedkilling efficacy grade: 5 (weed kill ratio 90% or more, (practically complete withering))
Redroot pigweed [31]
  L (redroot pigweed) weedkilling efficacy grade: 4 (weed kill ratio 70% or more, less than 90%)
Directly sown rice [32]
  b (directly sown rice) effect on crop grade: 5 (weed kill ratio 90% or more, (practically complete withering))
Green foxtail [33]
  E (green foxtail) weedkilling efficacy grade: 5 (weed kill ratio 90% or more, (practically complete withering))
Chickweed [34]
  N (chickweed) weedkilling efficacy grade: 5 (weed kill ratio 90% or more, (practically complete withering))

— US9738634B2, “Heterocyclic amide compound and herbicide” (SYNGENTA PARTICIPATIONS AG, priority 2013, dated 2017)
